# Laboratory results taken from patent EP1247803A2, “Indolinone compounds suitable for modulation of protein kinases” (Sugen, Inc., priority 1996, dated 1998).
# Molecular target: T1, FLK-1 receptor (Mus musculus, UniProt P35918)
# T1 construct: expressed in transfected cells; host or cells: NIH3T3 C7#3
# Assay: FLK-1 ELISA (kinase activity of the FLK-1 receptor in FLK-1/NIH3T3 cells, VEGF stimulated)
# Type: cell-based
# Method in brief: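 FLK-1-expressing NIH3T3 C7#3 cells, starved overnight in 0.1% FBS medium, were treated with compounds at a 1:200 final dilution (0.5% DMSO) for 2 h at 37 °C, with VEGF stimulation. FLK-1 kinase activity was read by ELISA on anti-rabbit IgG plates using affinity-purified anti-FLK-1 antiserum.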
# T1 sequence (P35918 20-1345): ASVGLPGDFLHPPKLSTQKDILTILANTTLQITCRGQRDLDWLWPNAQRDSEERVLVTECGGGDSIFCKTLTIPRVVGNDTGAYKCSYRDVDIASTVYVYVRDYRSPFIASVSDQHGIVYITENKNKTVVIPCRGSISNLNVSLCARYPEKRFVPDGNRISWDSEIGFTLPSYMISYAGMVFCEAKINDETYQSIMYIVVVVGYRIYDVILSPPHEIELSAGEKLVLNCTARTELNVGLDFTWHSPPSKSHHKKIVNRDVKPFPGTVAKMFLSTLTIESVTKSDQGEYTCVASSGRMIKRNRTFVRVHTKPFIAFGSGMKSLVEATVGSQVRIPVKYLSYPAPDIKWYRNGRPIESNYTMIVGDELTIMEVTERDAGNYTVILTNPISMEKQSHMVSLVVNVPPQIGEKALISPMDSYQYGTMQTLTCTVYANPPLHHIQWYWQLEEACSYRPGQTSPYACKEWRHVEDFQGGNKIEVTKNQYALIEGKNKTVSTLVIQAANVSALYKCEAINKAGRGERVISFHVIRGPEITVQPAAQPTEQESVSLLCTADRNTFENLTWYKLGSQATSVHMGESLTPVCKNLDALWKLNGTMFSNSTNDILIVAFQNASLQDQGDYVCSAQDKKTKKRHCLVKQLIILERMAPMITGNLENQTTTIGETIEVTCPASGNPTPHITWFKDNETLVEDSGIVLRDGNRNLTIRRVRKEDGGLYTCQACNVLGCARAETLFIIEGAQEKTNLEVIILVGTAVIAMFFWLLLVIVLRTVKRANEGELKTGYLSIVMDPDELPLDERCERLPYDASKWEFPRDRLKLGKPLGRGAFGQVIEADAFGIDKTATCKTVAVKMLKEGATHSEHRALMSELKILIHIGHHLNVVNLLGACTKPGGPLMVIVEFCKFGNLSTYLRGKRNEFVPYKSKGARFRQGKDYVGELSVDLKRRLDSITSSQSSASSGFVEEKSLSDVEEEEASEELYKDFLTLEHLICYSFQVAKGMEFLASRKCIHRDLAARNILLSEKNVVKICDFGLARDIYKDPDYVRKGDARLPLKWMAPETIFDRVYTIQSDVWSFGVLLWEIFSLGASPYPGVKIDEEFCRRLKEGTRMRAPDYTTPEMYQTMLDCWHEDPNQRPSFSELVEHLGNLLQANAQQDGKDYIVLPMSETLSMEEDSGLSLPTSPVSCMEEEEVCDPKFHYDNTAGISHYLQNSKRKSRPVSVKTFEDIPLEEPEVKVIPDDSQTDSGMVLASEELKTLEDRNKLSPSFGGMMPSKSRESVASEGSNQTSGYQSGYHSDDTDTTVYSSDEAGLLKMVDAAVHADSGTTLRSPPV
row,Compound,Fik Kinase %Inhibition [%]
1,O=C1Nc2ccc(S(=O)(=O)Nc3ccc(C(F)(F)F)cc3)cc2C1=Cc1ccc(F)cc1F [10722/E06],21.4
2,O=C1Nc2ccc(S(=O)(=O)Nc3ccc(C(F)(F)F)cc3)cc2C1=Cc1cc2c([nH]1)CCCC2 [10721/E05],10.8
3,CNS(=O)(=O)c1ccc2c(c1)C(=Cc1ccc(F)cc1)C(=O)N2 [10717/D05],-3.8
4,CC(C)(C)c1cc(C=C2C(=O)Nc3ccc(S(=O)(=O)Nc4ccc(C(F)(F)F)cc4)cc32)cc(Br)c1O [10721/E10],9.3
5,O=C1Nc2ccc(I)cc2C1=Cc1ccc(C(F)(F)F)cc1 [10722/B11],5.2
6,CC(C)(C)c1cc(C=C2C(=O)Nc3ccc(S(=O)(=O)Nc4ccc(C(F)(F)F)cc4)cc32)cc(C(C)(C)C)c1O [10721/E11],0.7
7,Cc1cc(C=C2C(=O)Nc3ccc(S(=O)(=O)Nc4ccc(C(F)(F)F)cc4)cc32)cc(C)c1O [10722/E07],24.3
8,Cc1cc(C=C2C(=O)Nc3ccc(S(=O)(=O)Nc4ccc(C(F)(F)F)cc4)cc32)sc1C [10721/E04],16.0
9,CCCCN(CCCC)c1ccc(C=C2C(=O)Nc3c(Br)cc(Br)cc32)cc1 [10722/A10],6.6
10,O=C1Nc2ccc(S(=O)(=O)N3CCOCC3)cc2C1=Cc1ccc(Cl)s1 [10721/F07],4.8
11,O=C1Nc2c(Br)cc(Br)cc2C1=Cc1ccc(C(F)(F)F)cc1 [10722/A11],6.7
12,CNS(=O)(=O)c1ccc2c(c1)C(=Cc1ccc(C(=O)O)cc1)C(=O)N2 [10722/D05],21.4
13,O=C1Nc2ccc(S(=O)(=O)Nc3ccc(C(F)(F)F)cc3)cc2C1=Cc1ccc(C(=O)O)cc1 [10722/E05],19.2
14,CNS(=O)(=O)c1ccc2c(c1)C(=Cc1ccc[nH]1)C(=O)N2 [10717/D09],-55.0
15,CNS(=O)(=O)c1ccc2c(c1)C(=Cc1ccc(C(F)(F)F)cc1)C(=O)N2 [10722/D11],9.6
16,CNS(=O)(=O)c1ccc2c(c1)C(=Cc1cc(C(C)(C)C)c(O)c(C(C)(C)C)c1)C(=O)N2 [10721/D11],20.6
17,Cn1cc(Cl)c(C=C2C(=O)Nc3ccc(S(=O)(=O)Nc4ccc(C(F)(F)F)cc4)cc32)n1 [10721/E03],10.9
18,CNS(=O)(=O)c1ccc2c(c1)C(=Cc1cccs1)C(=O)N2 [10717/D03],1.1
19,CCCCN(CCCC)c1ccc(C=C2C(=O)Nc3ccc(S(=O)(=O)Nc4ccc(C(F)(F)F)cc4)cc32)cc1 [10722/E10],3.1
20,CC(C)(C)c1cc(C=C2C(=O)Nc3ccc(S(=O)(=O)Nc4ccc(C(F)(F)F)cc4)cc32)cc([N+](=O)[O-])c1O [10722/E02],17.0
21,CCCCN(CCCC)c1ccc(C=C2C(=O)Nc3ccc(S(=O)(=O)NC)cc32)cc1 [10722/D10],8.2
22,CC(C)(C)c1cc(C=C2C(=O)Nc3ccc(CCCl)cc32)cc(Br)c1O [10721/G10],24.4
23,CNS(=O)(=O)c1ccc2c(c1)C(=Cc1ccc(F)cc1F)C(=O)N2 [10722/D06],21.9
24,CNS(=O)(=O)c1ccc2c(c1)C(=Cc1cc(Cl)c(O)c(C(C)(C)C)c1)C(=O)N2 [10722/D08],29.1
25,CNS(=O)(=O)c1ccc2c(c1)C(=Cc1ccc([N+](=O)[O-])s1)C(=O)N2 [10722/D04],23.5
26,CC(C)(C)c1cc(C=C2C(=O)Nc3ccc(S(=O)(=O)N4CCOCC4)cc32)cc(Br)c1O [10721/F10],49.6
27,CC(C)(C)c1cc(C=C2C(=O)Nc3ccc(I)cc32)cc([N+](=O)[O-])c1O [10722/B02],10.1
28,CNS(=O)(=O)c1ccc2c(c1)C(=Cc1c[nH]c3ccccc13)C(=O)N2 [10717/D06],1.0

row,Compound,Fik Kinase %Inhibition [%]
1,Cc1cc(C=C2C(=O)Nc3c(Br)cc(Br)cc32)cc(C)c1O [10722/A07],9.4
2,CNS(=O)(=O)c1ccc2c(c1)C(=Cc1cc(Br)c(O)c(C(C)(C)C)c1)C(=O)N2 [10721/D10],23.7
3,CNS(=O)(=O)c1ccc2c(c1)C(=Cc1csc([N+](=O)[O-])c1)C(=O)N2 [10722/D09],14.7
4,CNS(=O)(=O)c1ccc2c(c1)C(=Cc1ccc(Br)cc1)C(=O)N2 [10717/D08],6.8
5,O=C1Nc2ccc(S(=O)(=O)Nc3ccc(C(F)(F)F)cc3)cc2C1=Cc1csc([N+](=O)[O-])c1 [10722/E09],16.2
6,Cn1c(C=C2C(=O)Nc3ccc(S(=O)(=O)Nc4ccc(C(F)(F)F)cc4)cc32)nc2ccccc21 [10721/E02],17.2
7,O=C1Nc2c(Br)cc(Br)cc2C1=Cc1c(O)cc(O)cc1O [10722/A03],6.7
8,O=C1Nc2ccc(CCCl)cc2C1=Cc1ccc(Cl)s1 [10721/G07],3.3
9,O=C1Nc2c(Br)cc(Br)cc2C1=Cc1cccs1 [10717/A03],2.9
10,CNS(=O)(=O)c1ccc2c(c1)C(=Cc1ccc(C)s1)C(=O)N2 [10717/D07],-8.4
11,O=C1Nc2ccc(S(=O)(=O)N3CCOCC3)cc2C1=Cc1cc([N+](=O)[O-])cc(CCl)c1O [10721/F06],2.2
12,O=C1Nc2ccc(S(=O)(=O)Nc3ccc(C(F)(F)F)cc3)cc2C1=Cc1c(O)cc(O)cc1O [10722/E03],10.7
13,CNS(=O)(=O)c1ccc2c(c1)C(=Cc1c(O)cccc1OC)C(=O)N2 [10717/D10],-6.0
14,Cn1c(C=C2C(=O)Nc3ccc(S(=O)(=O)N4CCOCC4)cc32)nc2ccccc21 [10721/F02],17.0
15,O=C1Nc2c(Br)cc(Br)cc2C1=Cc1csc([N+](=O)[O-])c1 [10722/A09],7.3
16,O=C1Nc2ccc(S(=O)(=O)Nc3ccc(C(F)(F)F)cc3)cc2C1=Cc1cc([N+](=O)[O-])cc(CCl)c1O [10721/E06],40.4
17,Cc1cc(C)c(C=C2C(=O)Nc3ccc(S(=O)(=O)Nc4ccc(C(F)(F)F)cc4)cc32)[nH]1 [10721/E08],15.7
18,O=C1Nc2ccc(CCCl)cc2C1=Cc1cc([N+](=O)[O-])cc(CCl)c1O [10721/G06],18.9
19,Cn1c(C=C2C(=O)Nc3ccc(CCCl)cc32)nc2ccccc21 [10721/G02],16.4
20,O=C1Nc2c(Br)cc(Br)cc2C1=Cc1ccc(F)cc1F [10722/A06],9.6
21,Cc1cc(C)c(C=C2C(=O)Nc3ccc(CCCl)cc32)[nH]1 [10721/G08],5.4
22,CC(C)(C)c1cc(C=C2C(=O)Nc3ccc(CCCl)cc32)ccc1O [10721/G09],20.4
23,CNS(=O)(=O)c1ccc2c(c1)C(=Cc1cccn1C)C(=O)N2 [10717/D04],-2.1
24,CC(C)(C)c1cc(C=C2C(=O)Nc3ccc(S(=O)(=O)N4CCOCC4)cc32)cc(C(C)(C)C)c1O [10721/F11],29.7
25,O=C1Nc2ccc(I)cc2C1=Cc1c(O)cc(O)cc1O [10722/B03],13.6
26,O=C1Nc2ccc(CCCl)cc2C1=Cc1cc2c([nH]1)CCCC2 [10721/G05],-15.1
27,CC(C)(C)c1cc(C=C2C(=O)Nc3c(Br)cc(Br)cc32)cc([N+](=O)[O-])c1O [10722/A02],0.8
